Target: T1, Gamma-glutamyl transpeptidase (eqGGT) (Equus caballus, UniProt F7DXY0)
T1 construct: GGT from equine kidney (Sigma-Aldrich)
Assay: time-dependent irreversible inactivation, pre-incubation with […] DON then dilution
Format: biochemical

T1 sequence (F7DXY0 75-452): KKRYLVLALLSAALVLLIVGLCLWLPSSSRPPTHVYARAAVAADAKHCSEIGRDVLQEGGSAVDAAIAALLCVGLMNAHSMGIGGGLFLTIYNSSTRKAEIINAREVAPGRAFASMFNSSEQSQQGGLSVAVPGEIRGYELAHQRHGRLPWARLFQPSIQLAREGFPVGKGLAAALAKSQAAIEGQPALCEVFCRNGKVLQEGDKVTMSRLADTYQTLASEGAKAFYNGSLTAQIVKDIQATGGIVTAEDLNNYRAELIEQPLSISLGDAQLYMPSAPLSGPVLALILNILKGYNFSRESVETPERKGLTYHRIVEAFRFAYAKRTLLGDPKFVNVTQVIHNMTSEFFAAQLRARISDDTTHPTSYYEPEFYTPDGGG
T1 sequence (F7DXY0 453-641): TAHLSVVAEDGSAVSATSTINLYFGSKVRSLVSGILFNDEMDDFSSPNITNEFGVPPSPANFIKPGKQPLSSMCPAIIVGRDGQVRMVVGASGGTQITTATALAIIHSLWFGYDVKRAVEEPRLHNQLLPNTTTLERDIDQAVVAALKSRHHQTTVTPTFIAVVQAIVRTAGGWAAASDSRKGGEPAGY

[N-]=[N+]=CC(=O)CC[C@H](N)C(=O)O [DON, 6-diazo-5-oxo-L-norleucine]
time-dependent irreversible inactivation, pre-incubation with 400 μM DON then di: DON acts as an irreversible inhibitor, and then as an inactivator of GGT, because, after dilution, the activity was not restored
